Patent US20240124503A1, “HETEROAROMATIC PHOSPHONIUM SALTS AND THEIR USE TREATING CANCER” (FLORATEK PHARMA S.A., priority 2021, published 2024)

Assays:
[1] = biological target: T1, CDK11 (Homo sapiens, UniProt Q9BWU1); assay: KINOMEscan competition binding, CDK11
T1 construct: purchased Eurofins (KINOMEscan); host or cells: E. coli BL21-derived host (T7 phage) or HEK-293
Protocol: (§1) Selected compounds were screened for kinase inhibition using the KINOMEscan™ assay (Eurofins) which is based on a competition binding assay that quantitatively measures the ability of a compound to compete with an immobilized, active-site directed ligand. The assay was performed by combining three components: DNA-tagged kinase; immobilized ligand; and the test compound. The ability of the test compound to compete with the immobilized ligand was measured via quantitative PCR of the DNA tag.
(§2) Kinase-tagged T7 phage strains were prepared in an E. coli host derived from the BL21 strain. E. coli were grown to log-phase and infected with T7 phage and incubated with shaking at 32° C. until lysis. The lysates were centrifuged and filtered to remove cell debris. The remaining kinases were produced in HEK-293 cells and subsequently tagged with DNA for qPCR detection. Streptavidin-coated magnetic beads were treated with biotinylated small molecule ligands for 30 minutes at room temperature to generate affinity resins for kinase assays. […] Kds were determined using an 11-point 3-fold compound dilution series with three DMSO control points. […] The kinase concentration in the eluates was measured by qPCR. […]
(§3) Binding constants (Kds) were calculated with a standard dose-response curve using the Hill equation: Response=Background+[Signal−Background/1+(Kd^Hill Slope/Dose^Hill Slope)] […]

[2] = system: ZR-75-1; assay: Cell viability assay, ZR-75-1; type: cell-based; settings: Homo sapiens; breast carcinoma cell line ZR-75-1
Protocol: (§4) Antitumor activity of the compounds and doxorubicin as a positive control was assessed by using the CellTiter-Blue Cell Viability Assay (Promega, #G8082) or CellTiter-Glow® Luminescent Cell Viability assay (Promega #G7572) according to the manufacturer's instructions. The compounds were tested at 5 or 6 concentrations in half-log increments (highest concentration 30 μM or 100 μM) in duplicate or triplicate well conditions.
(§5) Tumor cells were grown at 37° C. in a humidified atmosphere with 5% CO2 in RPMI 1640 or DMEM medium, supplemented with 10% (v/v) fetal calf serum and 50 μg/ml gentamicin for up to 20 passages, and were passaged once or twice weekly. Cells were harvested using TrypLE or PBS buffer containing 1 mM EDTA, and the percentage of viable cells was determined using a CASY Model TI cell counter (OMNI Life Science). Cells were harvested from exponential phase cultures, counted and plated in 96 well flat-bottom microtiter plates at a cell density depending on the cell line's growth rate (4,000-20,000 cells/well depending on the cell line's growth rate, up to 60,000 for hematological cancer cell lines) in RPMI 1640 or DMEM medium supplemented with 10% (v/v) fetal calf serum and 50 μg/ml gentamicin (140 μl/well). […] Viability of cells was quantified by the CellTiter-Blue® cell viability assay (Promega G8081) or CellTiter-Glow® Luminescent Cell Viability assay (Promega #G7572). […]

[3] = biological target: T2, ADCK3 (Homo sapiens, UniProt Q8NI60); assay: KINOMEscan competition binding, ADCK3
T2 construct: purchased Eurofins (KINOMEscan); host or cells: E. coli BL21-derived host (T7 phage) or HEK-293
Protocol: as §1, §2, §3

[4] = system: colon cancer cell; assay: Cell viability, colon cancer cells (panel statement); type: cell-based; settings: summary of Table 6; read-out: IC50, colon cancer cell growth
Protocol: as §4, §5

[5] = system: CHP-134; assay: Cell viability assay, CHP-134; type: cell-based; settings: Homo sapiens; brain carcinoma cell line CHP-134
Protocol: as §4, §5

[6] = system: breast cancer cell; assay: Cell viability, breast cancer cells (panel statement); type: cell-based; settings: text summary of Tables 4A & 4B; read-out: IC50, breast cancer cell growth
Protocol: as §4, §5

[7] = system: MDA-MB-231; assay: Cell viability assay, MDA-MB-231; type: cell-based; settings: Homo sapiens; breast carcinoma cell line MDA-MB-231
Protocol: as §4, §5

[8] = biological target: T3, TRKA (Homo sapiens, UniProt P04629); assay: KINOMEscan competition binding, TRKA
T3 construct: purchased Eurofins (KINOMEscan); host or cells: E. coli BL21-derived host (T7 phage) or HEK-293
Protocol: as §1, §2, §3

[9] = system: NCI-H460; assay: Cell viability assay, NCI-H460; type: cell-based; settings: Homo sapiens; lung carcinoma cell line NCI-H460
Protocol: as §4, §5

[10] = biological target: T4, KIT(D816V) (Homo sapiens, UniProt P10721, D816V); assay: KINOMEscan competition binding, KIT(D816V)
T4 construct: purchased Eurofins (KINOMEscan); host or cells: E. coli BL21-derived host (T7 phage) or HEK-293
Protocol: as §1, §2, §3

[11] = biological target: T5, RSK2(Kin.Dom.1-N-terminal) (Homo sapiens, UniProt P51812); assay: KINOMEscan competition binding, RSK2(Kin.Dom.1-N-terminal)
T5 construct: Kin.Dom.1; purchased Eurofins (KINOMEscan); host or cells: E. coli BL21-derived host (T7 phage) or HEK-293
Protocol: as §1, §2, §3

[12] = system: Panc-1; assay: Cell viability assay, Panc-1; type: cell-based; settings: pancreatic carcinoma cell line Panc-1
Protocol: as §4, §5

T2 sequence (Q8NI60 163-647): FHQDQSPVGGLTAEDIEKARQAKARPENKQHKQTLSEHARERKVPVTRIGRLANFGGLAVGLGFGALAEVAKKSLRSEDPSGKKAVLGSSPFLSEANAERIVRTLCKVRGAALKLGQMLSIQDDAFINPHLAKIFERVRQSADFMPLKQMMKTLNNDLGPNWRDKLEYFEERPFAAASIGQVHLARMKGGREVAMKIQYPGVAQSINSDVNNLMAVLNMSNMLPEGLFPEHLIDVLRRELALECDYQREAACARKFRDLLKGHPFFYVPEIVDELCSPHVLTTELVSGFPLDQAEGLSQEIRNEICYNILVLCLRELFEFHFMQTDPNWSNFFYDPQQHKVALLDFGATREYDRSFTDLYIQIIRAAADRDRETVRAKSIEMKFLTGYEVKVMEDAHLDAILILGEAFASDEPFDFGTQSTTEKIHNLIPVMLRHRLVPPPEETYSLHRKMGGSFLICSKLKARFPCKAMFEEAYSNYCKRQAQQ
T1 sequence (Q9BWU1 whole entry): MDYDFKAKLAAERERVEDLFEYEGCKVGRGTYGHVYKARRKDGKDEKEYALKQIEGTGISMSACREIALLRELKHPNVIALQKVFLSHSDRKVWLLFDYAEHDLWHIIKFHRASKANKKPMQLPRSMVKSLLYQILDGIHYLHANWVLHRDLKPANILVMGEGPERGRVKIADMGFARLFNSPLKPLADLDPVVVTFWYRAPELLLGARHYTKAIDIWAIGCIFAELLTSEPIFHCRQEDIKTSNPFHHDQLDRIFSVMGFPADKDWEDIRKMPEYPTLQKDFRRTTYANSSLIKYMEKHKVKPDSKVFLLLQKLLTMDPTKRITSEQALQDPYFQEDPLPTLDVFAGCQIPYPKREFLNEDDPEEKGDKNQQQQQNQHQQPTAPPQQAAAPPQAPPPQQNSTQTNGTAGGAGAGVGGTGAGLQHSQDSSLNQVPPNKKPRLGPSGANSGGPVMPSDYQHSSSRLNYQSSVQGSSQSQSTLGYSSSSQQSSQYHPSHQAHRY
T4 sequence (P10721 26-976 D816V): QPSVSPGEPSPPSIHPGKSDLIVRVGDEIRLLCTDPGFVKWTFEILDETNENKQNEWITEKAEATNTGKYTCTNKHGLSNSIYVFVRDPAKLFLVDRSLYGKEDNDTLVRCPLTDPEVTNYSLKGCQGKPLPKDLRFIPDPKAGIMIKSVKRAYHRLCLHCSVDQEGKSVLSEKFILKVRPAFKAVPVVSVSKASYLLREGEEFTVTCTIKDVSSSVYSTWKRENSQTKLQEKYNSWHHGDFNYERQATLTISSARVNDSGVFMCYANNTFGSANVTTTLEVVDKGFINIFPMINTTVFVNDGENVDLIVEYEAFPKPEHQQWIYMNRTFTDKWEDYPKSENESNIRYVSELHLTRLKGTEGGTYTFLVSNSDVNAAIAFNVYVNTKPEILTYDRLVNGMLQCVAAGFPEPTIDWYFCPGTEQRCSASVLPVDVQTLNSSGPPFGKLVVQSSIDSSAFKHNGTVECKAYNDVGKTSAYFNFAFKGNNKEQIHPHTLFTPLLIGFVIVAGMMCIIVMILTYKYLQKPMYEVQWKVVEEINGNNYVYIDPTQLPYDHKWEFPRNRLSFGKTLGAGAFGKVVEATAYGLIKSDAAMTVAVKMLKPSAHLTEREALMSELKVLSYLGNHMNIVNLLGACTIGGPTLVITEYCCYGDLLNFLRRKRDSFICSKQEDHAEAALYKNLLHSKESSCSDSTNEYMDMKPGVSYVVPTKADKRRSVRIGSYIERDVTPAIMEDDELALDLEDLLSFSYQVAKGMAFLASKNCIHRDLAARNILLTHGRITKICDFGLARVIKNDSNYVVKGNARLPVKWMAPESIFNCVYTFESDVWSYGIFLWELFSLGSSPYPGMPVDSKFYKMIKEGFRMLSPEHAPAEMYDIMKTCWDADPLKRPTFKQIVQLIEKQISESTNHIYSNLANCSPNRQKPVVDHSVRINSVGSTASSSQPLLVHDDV
T5 sequence (P51812 68-327 limits assumed): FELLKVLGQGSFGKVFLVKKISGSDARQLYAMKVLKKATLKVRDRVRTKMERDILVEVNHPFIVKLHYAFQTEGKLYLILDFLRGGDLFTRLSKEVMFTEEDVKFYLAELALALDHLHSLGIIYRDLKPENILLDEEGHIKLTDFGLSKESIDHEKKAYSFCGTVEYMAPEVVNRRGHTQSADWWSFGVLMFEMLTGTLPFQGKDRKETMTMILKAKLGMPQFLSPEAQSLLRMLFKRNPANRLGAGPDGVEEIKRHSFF
T3 sequence (P04629 33-796): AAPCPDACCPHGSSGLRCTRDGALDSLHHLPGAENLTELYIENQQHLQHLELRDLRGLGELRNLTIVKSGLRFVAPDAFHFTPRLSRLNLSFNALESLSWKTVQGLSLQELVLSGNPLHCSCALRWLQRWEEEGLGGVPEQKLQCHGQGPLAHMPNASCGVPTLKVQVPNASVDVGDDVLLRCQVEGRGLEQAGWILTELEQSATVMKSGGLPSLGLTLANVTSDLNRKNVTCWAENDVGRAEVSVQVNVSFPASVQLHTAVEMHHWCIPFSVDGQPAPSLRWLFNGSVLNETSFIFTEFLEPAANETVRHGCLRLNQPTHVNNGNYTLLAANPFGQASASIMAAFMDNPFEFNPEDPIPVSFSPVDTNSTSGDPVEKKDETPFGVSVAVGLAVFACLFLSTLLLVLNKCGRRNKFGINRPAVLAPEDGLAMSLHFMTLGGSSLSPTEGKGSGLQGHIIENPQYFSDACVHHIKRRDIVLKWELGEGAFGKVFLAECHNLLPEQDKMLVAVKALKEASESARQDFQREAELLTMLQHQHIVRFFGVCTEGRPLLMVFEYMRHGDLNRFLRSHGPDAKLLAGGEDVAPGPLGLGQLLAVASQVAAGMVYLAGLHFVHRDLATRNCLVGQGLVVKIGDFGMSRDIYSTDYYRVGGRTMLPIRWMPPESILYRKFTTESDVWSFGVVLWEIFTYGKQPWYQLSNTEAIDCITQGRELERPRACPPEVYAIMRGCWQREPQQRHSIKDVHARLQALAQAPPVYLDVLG

Row | Kd [1] [nM] | Kd [3] [nM] | IC50 [4] [nM] | IC50 [6] [nM] | IC50 [7] [nM] | Kd [8] [nM] | IC50 [9] [nM] | Kd [10] [nM] | Kd [11] [nM] | SMILES | IC50 [2] [nM] | IC50 [5] [nM] | IC50 [12] [nM]
1 | 3600 | 100 | < 20000 | < 5000 | 3500 | 2300 | 8630 | 930 | 1700 | COc1c(O)ccc2c(=O)c(O)c(-c3ccc(CCCC[P+](c4ccccc4)(c4ccccc4)c4ccccc4)cc3)oc12 [SND190, (4-(4-(3,7-Dihydroxy-8-methoxy-4-oxo-4H1-chromen-2-yl)phenyl)butyl)triphenylphosphonium bromide] | 3500 | 1100 | –
2 | – | – | – | – | – | – | – | – | – | O=c1cc(-c2ccc(CCC[P+](c3ccccc3)(c3ccccc3)c3ccccc3)cc2)oc2c(O)c(O)ccc12 [SND200, (3-(4-(7,8-Dihydroxy-4-oxo-4H1-chromen-2-yl)phenyl)propyl)triphenylphosphonium bromide] | – | – | 1330
